Calls of active or inactive are those of the source. No cut-off for these calls is given here.
Key:
[1] = target: Alpha-synuclein (Homo sapiens) (UniProt P37840); assay: Inhibition of human alpha-synuclein aggregation expressed in transgenic Caenorhabditis elegans NL5901 assessed as decrease in alpha-synuclein expression at 1% after 48 hrs by fluorescence microscopy analysis
[2] = target: Alpha-synuclein (Homo sapiens) (UniProt P37840); assay: Inhibition of human alpha-synuclein aggregation expressed in transgenic Caenorhabditis elegans NL5901 by measuring fluorescence intensity at 1% incubated for 48 hrs by fluorescence microscopy analysis relative to control

inhibition [1]	fold change (FC) [2]	inhibition [2]	SMILES
Active	2.4	53%	CCOC(=O)c1cnc2c(cnn2-c2ccccc2)c1N1CCN(C)CC1
Active		14.1%	CCOC(=O)c1cnc2c(cnn2-c2ccccc2)c1N1CCN(c2cc(C(F)(F)F)nc3ncnn23)CC1
Active		31.9%	CCOC(=O)c1cnc2c(cnn2-c2ccccc2)c1N1CCN(c2cc(C)nc3ncnn23)CC1
Active	1.7	39.2%	CCOC(=O)c1cnc2c(cnn2-c2ccccc2)c1N1CCN(c2ccnc3cc(Cl)ccc23)CC1
Active		30.2%	CCOC(=O)c1cnc2c(cnn2-c2ccccc2)c1N1CCOCC1
Active		33.1%	CCOC(=O)c1cnc2c(cnn2-c2ccccc2)c1N1CCN(c2ncccc2C#N)CC1
Active		14.7%	CCOC(=O)c1cnc2c(cnn2-c2ccccc2)c1N1CCN(c2cc(=O)[nH]c3ccccc23)CC1
Active	1.5	47.7%	CCOC(=O)c1cnc2c(cnn2-c2ccccc2)c1N1CCCCC1

The remaining lines, values behind:

SMILES	inhibition [1]	fold change (FC) [2]	inhibition [2]
CCOC(=O)c1cnc2c(cnn2-c2cccc(C(F)(F)F)c2)c1N1CCN(c2ncccc2C#N)CC1	Active		27.3%
CCOC(=O)c1cnc2c(cnn2-c2ccccc2F)c1N1CCN(c2ncccc2C#N)CC1	Active		26.1%
CCOC(=O)c1cnc2c(cnn2-c2ccc(F)c(F)c2)c1N1CCN(c2ncccc2C#N)CC1	Active		13.5%
CCOC(=O)c1cnc2c(cnn2-c2ccccc2)c1Oc1cccc2cccnc12	Active		24.4%
CCOC(=O)c1cnc2c(cnn2-c2ccccc2)c1N1CCN(S(=O)(=O)c2ccc(NC(C)=O)cc2)CC1	Active		17.7%

— ChEMBL document CHEMBL4725335, “Deciphering the robustness of pyrazolo-pyridine carboxylate core structure-based compounds for inhibiting α-synuclein in transgenic C. elegans model of Synucleinopathy” (Bioorg Med Chem, 2020)
